Test results published in PMC9147192, “Small Molecule Arranged Thermal Proximity Coaggregation (smarTPCA)—A Novel Approach to Characterize Protein–Protein Interactions in Living Cells by Similar Isothermal Dose–Responses” (International Journal of Molecular Sciences, 2022).

Target: T1, PFAS (Homo sapiens, UniProt O15067)
T1 construct: endogenous in cells; host or cells: HL-60 (ATCC CCL-240)
T1 sequence (O15067 1-1338): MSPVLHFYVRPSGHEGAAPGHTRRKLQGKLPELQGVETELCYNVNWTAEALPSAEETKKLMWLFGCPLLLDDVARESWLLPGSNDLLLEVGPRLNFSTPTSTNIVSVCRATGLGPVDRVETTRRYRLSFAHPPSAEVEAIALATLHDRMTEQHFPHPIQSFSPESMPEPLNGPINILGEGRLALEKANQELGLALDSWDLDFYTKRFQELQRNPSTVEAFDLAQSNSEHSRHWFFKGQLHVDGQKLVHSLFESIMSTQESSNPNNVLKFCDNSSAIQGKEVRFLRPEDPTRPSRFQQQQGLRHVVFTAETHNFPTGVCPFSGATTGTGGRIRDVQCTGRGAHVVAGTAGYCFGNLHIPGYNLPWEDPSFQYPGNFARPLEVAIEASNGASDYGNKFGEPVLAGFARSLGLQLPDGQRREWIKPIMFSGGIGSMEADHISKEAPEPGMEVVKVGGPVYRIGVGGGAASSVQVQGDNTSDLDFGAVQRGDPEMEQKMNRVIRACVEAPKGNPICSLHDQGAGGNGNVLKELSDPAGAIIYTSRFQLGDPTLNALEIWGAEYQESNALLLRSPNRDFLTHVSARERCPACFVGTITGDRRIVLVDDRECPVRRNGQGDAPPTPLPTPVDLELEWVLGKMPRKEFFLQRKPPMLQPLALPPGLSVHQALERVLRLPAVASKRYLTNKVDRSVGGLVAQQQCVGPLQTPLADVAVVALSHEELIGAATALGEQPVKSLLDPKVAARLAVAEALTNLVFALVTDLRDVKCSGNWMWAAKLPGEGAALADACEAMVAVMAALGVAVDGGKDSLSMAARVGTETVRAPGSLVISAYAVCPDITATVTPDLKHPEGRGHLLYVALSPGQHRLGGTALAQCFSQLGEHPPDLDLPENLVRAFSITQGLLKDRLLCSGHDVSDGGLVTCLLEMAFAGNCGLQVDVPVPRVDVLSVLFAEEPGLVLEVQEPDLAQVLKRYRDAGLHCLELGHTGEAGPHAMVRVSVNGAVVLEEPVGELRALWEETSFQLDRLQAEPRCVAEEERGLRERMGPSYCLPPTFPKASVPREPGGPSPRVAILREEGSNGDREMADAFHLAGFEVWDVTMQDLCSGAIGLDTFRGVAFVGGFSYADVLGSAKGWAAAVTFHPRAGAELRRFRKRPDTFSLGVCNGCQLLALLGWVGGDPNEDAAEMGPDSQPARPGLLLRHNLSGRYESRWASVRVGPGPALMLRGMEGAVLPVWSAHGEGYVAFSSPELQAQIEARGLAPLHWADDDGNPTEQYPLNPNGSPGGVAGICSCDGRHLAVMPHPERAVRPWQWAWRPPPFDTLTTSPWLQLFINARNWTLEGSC
Experiment: TPP-CCR in living HL-60 cells
Format: cell-based

[1] = living HL-60 cells, […] °C, TMT-MS

Cc1cnc(Nc2ccc(F)cc2Cl)nc1-c1c[nH]c(C(=O)N[C@H](CO)c2cccc(Cl)c2)c1 [ERK 11e]
Hill slope (TPP-CCR, living cells, PFAS): 0.30
EC50 [1]: 1170 nM
Hill slope (PFAS) [1]: 0.30
